Values of other authors as cited in article PMC7340670, “Phase I study of TAS-115, a novel oral multi-kinase inhibitor, in patients with advanced solid tumors” (Investigational New Drugs, 2019).

Key:
[1] = tested on: patients with solid tumours; design: method as in PMID 21606412; conditions: phase I study for solid tumours; cited from earlier work
[2] = tested on: circulating sMET; design: method as in PMID 21606412, PMID 21156020, PMID 24687921; conditions: previous clinical studies; cited from earlier work

COc1cc2nccc(Oc3ccc(NC(=O)C4(C(=O)Nc5ccc(F)cc5)CC4)cc3)c2cc1OC [cabozantinib]
TRAE decreased appetite [1]: 48% | TRAE diarrhea [1]: 57% | TRAE fatigue [1]: 55% | TRAE nausea [1]: 43% | TRAEs neutropenia, anemia, hypophosphatemia, and thrombocytopenia [1]: not observed | levels of circulating sMET [2]: Increased levels

onartuzumab: agent of a previous clinical study in which increased circulating sMET was reported (ref 21)
levels of circulating sMET [2]: Increased levels

rilotumumab: agent of a previous clinical study in which increased circulating sMET was reported (ref 20)
levels of circulating sMET [2]: Increased levels
